Assay results: BindingDB's records for doi:10.1021/jm00214a010 (1977)

Biological target: T1, Aminopeptidase B (Rattus norvegicus, UniProt O09175)
T1 sequence (O09175 whole entry): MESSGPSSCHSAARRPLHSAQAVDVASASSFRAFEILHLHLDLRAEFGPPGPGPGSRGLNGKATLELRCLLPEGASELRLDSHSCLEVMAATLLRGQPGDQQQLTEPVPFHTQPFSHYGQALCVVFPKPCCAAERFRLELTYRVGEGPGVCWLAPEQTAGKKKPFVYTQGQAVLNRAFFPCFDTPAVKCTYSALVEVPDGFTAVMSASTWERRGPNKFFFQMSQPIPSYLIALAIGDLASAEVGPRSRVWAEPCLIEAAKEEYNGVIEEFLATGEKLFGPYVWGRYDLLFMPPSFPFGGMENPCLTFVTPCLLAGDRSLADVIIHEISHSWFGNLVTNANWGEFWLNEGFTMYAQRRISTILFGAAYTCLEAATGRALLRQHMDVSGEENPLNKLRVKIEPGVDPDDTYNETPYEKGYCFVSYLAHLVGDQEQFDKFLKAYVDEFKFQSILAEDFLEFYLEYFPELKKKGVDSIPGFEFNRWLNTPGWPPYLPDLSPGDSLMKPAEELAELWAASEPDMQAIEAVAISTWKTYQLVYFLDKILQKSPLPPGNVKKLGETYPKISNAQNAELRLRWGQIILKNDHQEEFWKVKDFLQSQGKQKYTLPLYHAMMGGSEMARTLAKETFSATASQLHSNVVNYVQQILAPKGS
Experiment: Inhibition of rat liver aminopeptidase B using 0.2 mM […] by colorimetry

IC50: 640 µM
SMILES: CC(C)CCNC(=O)[C@@H](O)[C@H](N)Cc1ccccc1
